Measured values: article PMC12670405, “Second-Generation AURKA-Targeting PROTACs: Structural Optimization toward in Vivo Degradation in Neuroblastoma” (Journal of Medicinal Chemistry, 2025)
Values joined by “and” are separate entries in the source; they are usually repeats but may differ in a detail not shown here. Equal values may be shown once. Read-outs that look alike come from different tables or passages of the source. Each block holds one compound with its values, some of them ahead of it.

How the values were obtained:
[1] = biological target: T1, AURKA (Homo sapiens, UniProt O14965); test: AURKA degradation, Simple Western; type: cell-based; parameters: Representative Western blot showing levels of endogenous proteins MDR1, MYCN, AURKA, and CRBN in untreated cell lines; endogenous in cells; host or cells: NGP, IMR-32, SJNB-8, SK-N-BE(2)-C, SK-N-SH, SK-N-AS, SJNB-1, RPE, HEK293T; settings: for pDC50: AURKA degradation; for time to robust AURKA depletion: IMR-32, 500 nM; for AURKA degradation potency upon cotreatment with tariquidar (in words): 100 nM, 1 μM tariquidar; for AURKA Degradation 24h @100nM / AURKA Degradation 24h @1000nM / AURKA degradation potency upon cotreatment with tariquidar (in words): 24h;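 on AURKA Degradation 24h @1000nM: measured in NGP neuroblastoma cells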;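 on AURKA Degradation 24h @100nM: measured in NGP neuroblastoma cells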
T1 sequence (O14965 1-403): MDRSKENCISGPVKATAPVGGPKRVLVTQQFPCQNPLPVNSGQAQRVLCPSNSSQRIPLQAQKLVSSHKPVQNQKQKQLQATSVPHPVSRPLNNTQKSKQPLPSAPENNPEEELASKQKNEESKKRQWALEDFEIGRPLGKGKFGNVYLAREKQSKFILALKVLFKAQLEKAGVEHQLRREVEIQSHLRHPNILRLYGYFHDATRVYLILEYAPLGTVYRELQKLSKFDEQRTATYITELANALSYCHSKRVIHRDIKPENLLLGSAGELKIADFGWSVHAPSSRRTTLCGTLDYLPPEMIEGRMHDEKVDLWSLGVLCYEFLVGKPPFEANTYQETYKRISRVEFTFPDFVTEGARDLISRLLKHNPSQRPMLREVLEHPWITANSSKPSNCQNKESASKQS
How it was run: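 Cells treated with compound in medium; lysed in RIPA and analysed by Simple Western (0.8 μg/μL lysate, 0.2 μg/μL for MYCN). Peak areas were normalized to vinculin, giving fold change versus DMSO (mean of 3 experiments); DC50 interpolated from four-parameter dose–response curves.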

[2] = Metabolic stability in mouse liver microsomes (MLM); type: in vitro ADME, CD-1 mouse; settings: CD-1
Protocol: Plasma and metabolic stability tests were performed by Eurofins Discovery. For the plasma stability assay, test compounds were incubated in CD-1 mouse plasma for 0, 0.5, 1, 1.5, and 2 h at 37 °C at a concentration of 1 μM. For the metabolic stability assay, test compounds were incubated at 37 °C in either (1) CD-1 mouse liver microsomes (MLM) (0.1 mg/mL) at a concentration of 0.1 μM for 0, 15, 30, 45, and 60 min or (2) CD-1 mouse hepatocytes (MH) (0.7 million viable cells/mL) at a concentration of 1 μM for 0, 0.5, 1, 1.5, and 2 h. At the respective time points, acetonitrile was added to the incubation mixture followed by centrifugation. Samples were analyzed by HPLC-MS/MS and peak areas were recorded for each analyte. Compound stability, expressed as the percentage of parent compound remaining, was calculated by comparing the peak area of the compound at each time point relative to that of the 0h time point. Percentage compound remaining is plotted as a function of time as a logarithmic curve. Half-life (t 1/2) is estimated from the slope of the initial linear range of the curve, assuming first-order kinetics. […] Both plasma and metabolic assay experiments were performed once with 2 replicate samples each.

[3] = NGP, 24 h treatment, read-out: AURKA DC50
[4] = SK-N-BE(2)-C, read-out: AURKA DC50 24h

- AURKA Degradation 24h @100nM [1]: 86
- pDC50 [1]: 8,41
- Dmax ([1]; NGP, 24 h treatment): 89%
- DC50 ([1]; read-out: AURKA DC50): 3.9 nM
- microsomal CLint at 0.1 μM [2]: 1390 µL/min/mg
Compound: O=C1CCC(N2C(=O)c3cccc(OCCOCCOCCOCCNC(=O)[C@]4(Cc5cccc(Nc6nccs6)n5)CC[C@@H](Oc5cccc(Cl)c5F)CC4)c3C2=O)C(=O)N1 (stereo partly shown) [SK2188, reference compound]

- AURKA Degradation 24h @100nM [1]: 88
- AURKA Degradation 24h @1000nM [1]: 88
- pDC50 [1]: 8,4
- AURKA degradation activity (in words) ([1]; NGP, 24 h treatment): restored degradation activity
- Dmax ([1]; NGP, 24 h treatment): 90%
- DC50 ([1]; read-out: AURKA DC50): 4 nM
- microsomal CLint at 0.1 μM [2]: 666 µL/min/mg
Compound: O=C1CCN(c2ccc(N3CCN(CC4CN(C(=O)[C@]5(Cc6cccc(Nc7nccs7)n6)CC[C@@H](Oc6cccc(Cl)c6F)CC5)C4)CC3)nc2)C(=O)N1 [PROTAC 23]

- AURKA Degradation 24h @100nM [1]: 88
- AURKA Degradation 24h @1000nM [1]: 93
- pDC50 [1]: 8,23
- AURKA degradation activity (in words) ([1]; NGP, 24 h treatment): restored degradation activity
- Dmax ([1]; NGP, 24 h treatment): 94%
- DC50 ([1]; read-out: AURKA DC50): 5.8 nM
- microsomal CLint at 0.1 μM [2]: 565 µL/min/mg
Compound: O=C1CCN(c2ccc(N3CCN(CC4CCN(C(=O)[C@]5(Cc6cccc(Nc7nccs7)n6)CC[C@@H](Oc6cccc(Cl)c6F)CC5)CC4)CC3)nc2)C(=O)N1 [PROTAC 24]

- AURKA Degradation 24h @100nM [1]: 88
- AURKA Degradation 24h @1000nM [1]: 92
- pDC50 [1]: 8,2
- Dmax ([1]; NGP, 24 h treatment): 92%
- DC50 [1, 3]: 6 nM
- DC50 ([1]; read-out: AURKA DC50): 6.4 nM
- microsomal CLint at 0.1 μM [2]: 369 µL/min/mg
Compound: O=C1CCC(Nc2ccc(N3CCN(C4CN(C(=O)[C@]5(Cc6cccc(Nc7nccs7)n6)CC[C@@H](Oc6cccc(Cl)c6F)CC5)C4)CC3)c(F)c2)C(=O)N1 (stereo partly shown) [PROTAC 18]

The remaining lines, values behind:

Compound: Cc1cc(Nc2ccc(F)c(CC3(C(=O)N4CC(N5CCN(c6ccc(NC7CCC(=O)NC7=O)cc6F)CC5)C4)CCN(Cc4cccc(Cl)c4F)CC3)n2)n[nH]1 (stereo not shown) [PROTAC 29]
- AURKA Degradation 24h @100nM [1]: 78
- AURKA Degradation 24h @1000nM [1]: 84
- pDC50 [1]: 8,11
- AURKA DC50 ([1]; NGP, 24 h treatment): single-digit nanomolar range
- Dmax ([1]; NGP, 24 h treatment): 87%
- DC50 ([1]; read-out: AURKA DC50): 7.8 nM
- microsomal CLint at 0.1 μM [2]: 438 µL/min/mg

Compound: Cc1cc(Nc2ccc(F)c(CC3(C(=O)N4CCC(CN5CCN(c6ccc(N7CCC(=O)NC7=O)cn6)CC5)CC4)CCN(Cc4cccc(Cl)c4F)CC3)n2)n[nH]1 [SK4454]
- AURKA Degradation 24h @100nM [1]: 88
- AURKA Degradation 24h @1000nM [1]: 92
- pDC50 [1]: 8,09
- time to robust AURKA depletion [1]: ≤ 1 h
- AURKA DC50 ([1]; NGP, 24 h treatment): single-digit nanomolar range
- Dmax ([1]; NGP, 24 h treatment): 90%
- DC50 [1, 3]: < 25 nM
- DC50 ([1]; SJNB-8, read-out: AURKA DC50 24h): < 25 nM and 23 nM
- AURKA degradation potency upon cotreatment with tariquidar (in words) ([1]; SK-N-BE(2)-C): significantly enhanced
- DC50 [1, 4]: 270 nM
- DC50 ([1]; read-out: AURKA DC50): 8.1 nM
- microsomal CLint at 0.1 μM [2]: 437 µL/min/mg

Compound: Cc1cc(Nc2ccc(F)c(CC3(C(=O)N4CCC(F)(CN5CCN(c6ccc(N7CCC(=O)NC7=O)cn6)CC5)CC4)CCN(Cc4cccc(Cl)c4F)CC3)n2)n[nH]1 [SK5527]
- AURKA Degradation 24h @100nM [1]: 88
- AURKA Degradation 24h @1000nM [1]: 93
- pDC50 [1]: 8,68
- DC50 ([1]; HEK293T, read-out: AURKA DC50 24h): 17 nM
- time to robust AURKA depletion [1]: ≤ 1 h
- AURKA DC50 ([1]; NGP, 24 h treatment): single-digit nanomolar range
- Dmax ([1]; NGP, 24 h treatment): 89%
- DC50 [1, 3]: < 25 nM
- DC50 ([1]; RPE, read-out: AURKA DC50 24h): 15 nM
- DC50 ([1]; SJNB-1, read-out: AURKA DC50 24h): 56 nM
- DC50 ([1]; SK-N-AS, read-out: AURKA DC50 24h): 30 nM
- AURKA degradation potency upon cotreatment with tariquidar (in words) ([1]; SK-N-BE(2)-C): significantly enhanced
- DC50 [1, 4]: 73 nM
- DC50 ([1]; SK-N-SH, read-out: AURKA DC50 24h): 23 nM
- DC50 ([1]; read-out: AURKA DC50): 2.1 nM
- microsomal CLint at 0.1 μM [2]: 582 µL/min/mg
